Values quoted from earlier work as cited in PMC10851415 (Biochemistry, 2024).

Tested on: influenza
Settings: in vivo, po; cited from earlier work

## COC(=O)OCOc1c2n(ccc1=O)N([C@@H]1c3ccccc3SCc3c1ccc(F)c3F)[C@@H]1COCCN1C2=O [BXM, Baloxavir marboxil]
  reduce fever in an average of: 24 h
